Laboratory results reported in BigSolDB 2.1.

CC(C)[C@H](NC(=O)OCC1c2ccccc2-c2ccccc21)C(=O)O
solubility (mole fraction)
Conditions	283.15 K	288.15 K	293.15 K	298.15 K	303.15 K	308.15 K	313.15 K	318.15 K	323.15 K
in 2-butanone	0.0403	0.0448	0.0509	0.057	0.0632	0.0699	0.0793	0.0902	0.102
in acetone	0.0449	0.0504	0.0568	0.0627	0.0707	0.0792	0.0915	0.104	0.121
in acetonitrile	0.00264	0.00327	0.00399	0.00477	0.00577	0.00703	0.00867	0.0105	0.0128
in dimethyl carbonate	0.0073	0.00766	0.00901	0.0108	0.0131	0.016	0.0196	0.0235	0.0294
in ethanol	0.0177	0.0243	0.0261	0.0312	0.0373	0.0462	0.057	0.0714	0.0877
in isobutanol	0.00967	0.0112	0.0127	0.0152	0.0186	0.0236	0.0296	0.0366	0.0541
in isopentanol	0.0103	0.0129	0.0159	0.0192	0.0231	0.0286	0.0351	0.0429	0.0552
in isopropanol	0.0105	0.0133	0.0161	0.0204	0.0271	0.0352	0.0448	0.0533	0.071
in methanol	0.0238	0.0259	0.0321	0.0396	0.0468	0.0571	0.0694	0.0846	0.0985
in n-butanol	0.0155	0.019	0.0216	0.0244	0.0287	0.0351	0.0434	0.0536	0.0728
in n-butyl acetate	0.0143	0.0162	0.0184	0.0209	0.0234	0.0273	0.0314	0.0362	0.0417
in n-pentanol	0.016	0.0172	0.0199	0.0233	0.0281	0.0344	0.0417	0.0495	0.0582
in n-propanol	0.0141	0.0169	0.0199	0.0227	0.0319	0.0398	0.0481	0.057	0.0742
in sec-butanol	0.016	0.0174	0.0222	0.0275	0.0349	0.0435	0.0549	0.0653	0.0801
